System: Metabolism protein genes
Assay: DNA chip mRNA expression in yeast, metabolism protein genes (Table 7)
Type: cell-based, Saccharomyces cerevisiae S288C
Procedure: Yeast (Saccharomyces cerevisiae S288C (α SUC2mal mel gap2 CUP1)) were incubated at 25° C. on YPD medium (yeast extract 1%, polypepton 2%, glucose 2%). One of toxic chemical substances was added to the cells at logarithmic growth phase, and the cells were further incubated for two hours. Cells were cultured without any chemical substance in the same condition, and were used as control. Concentrations of the chemical substances were defined to inhibit the growth of the yeast but not lead to death.
After completion of the incubation, the culture was centrifuged to collect the cells. To the cells, sodium acetate buffer (50 mM sodium acetate, 10 mM EDTA, 1% SDS) was added, and the mixture was shaken at 65° C. for five minutes, followed by returning to room temperature, and obtaining the supernatant, of which the procedures were repeated two times. To the supernatant, ½ amount of a solution of phenol/chloroform was added, and the mixture was centrifuged to give a supernatant, which was added with an equal amount of chloroform, and the mixture was centrifuged to give a supernatant. To the supernatant, an equal amount of isopropanol containing 0.3 M sodium acetate was added, and the mixture was allowed to stand at room temperature for 30 minutes, after which the mixture was centrifuged to give a sediment of the whole RNAs. Seventy % ethanol was added to the sediment, and the mixture was again centrifuged to give a sediment, which was then dried and dissolved in water. mRNA was isolated from the whole RNAs as followings. In view of the fact that a poly A chain is attached to the 3′ terminus of mRNA, a polynucleotide having a poly T structure which was immobilized on the surface of latex beads was used to trap the mRNA, and then the mRNA was washed and eluted with spine column (Oligotex-dT30<Super>mRNA Purification Kit, Takara). Reverse transcription of the mRNA was conducted with a reverse transcriptase (Super Script II Reverse Transcriptase; catalogue No. 18064-014, GibcoBRL) using fluorescence-labeled nucleotides to give cDNAs that were introduced with Cy3-dUTP or Cy5-dUTP during the reverse transcription.
The labeled cDNAs were dissolved in TE buffer (10mM Tris-HCl/1 mM EDTA, pH8.0), and the solution was dropped on the DNA chip containing the whole genes of yeast (DNA Chip Research Inc. Japan) so that the cDNAs were hybridized on the DNA chip at 65° C. for over 12 hours. The fluoresces intensity of the DNA chip was read with a scanner, and the ratio relative to the fluorescence intensity resulting from the absence of chemical substance was estimated as the following, which is shown in Tables 1 to 9: […]

SMILES: O=[N+]([O-])c1cc[n+]([O-])c2ccccc12 [(5), 4-nitroquinolin-N-oxide]
- The level of expressed mRNA in the presence of chemical substance/The level of expressed mRNA in the absence of chemical substance (yeast gene YJR148W): 0.6
- The level of expressed mRNA in the presence of chemical substance/The level of expressed mRNA in the absence of chemical substance (yeast gene YJR155W): 0.7
- The level of expressed mRNA in the presence of chemical substance/The level of expressed mRNA in the absence of chemical substance (yeast gene YKL035W): 0.8
- level of expressed mRNA in the presence/in the absence of chemical substance (yeast gene YKL060C): 1.6
- The level of expressed mRNA in the presence of chemical substance/The level of expressed mRNA in the absence of chemical substance (yeast gene YKL091C): 1.0
- The level of expressed mRNA in the presence of chemical substance/The level of expressed mRNA in the absence of chemical substance (yeast gene YKL104C): 1.4
- level of expressed mRNA in the presence/in the absence of chemical substance (yeast gene YKL148C): 0.8
- The level of expressed mRNA in the presence of chemical substance/The level of expressed mRNA in the absence of chemical substance (yeast gene YKL152C): 1.3
- level of expressed mRNA in the presence/in the absence of chemical substance (yeast gene YKL157W): 1.5
- The level of expressed mRNA in the presence of chemical substance/The level of expressed mRNA in the absence of chemical substance (yeast gene YKL213C): 0.7
- The level of expressed mRNA in the presence of chemical substance/The level of expressed mRNA in the absence of chemical substance (yeast gene YKL215C): 1.0
- level of expressed mRNA in the presence/in the absence of chemical substance (yeast gene YKR034W): 0.9
- The level of expressed mRNA in the presence of chemical substance/The level of expressed mRNA in the absence of chemical substance (yeast gene YKR039W): 1.0
- The level of expressed mRNA in the presence of chemical substance/The level of expressed mRNA in the absence of chemical substance (yeast gene YLL058W): 0.8
- level of expressed mRNA in the presence/in the absence of chemical substance (yeast gene YLR006C): 1.6
- level of expressed mRNA in the presence/in the absence of chemical substance (yeast gene YLR044C): 1.7
- level of expressed mRNA in the presence/in the absence of chemical substance (yeast gene YLR056W): 1.6
- level of expressed mRNA in the presence/in the absence of chemical substance (yeast gene YLR058C): 0.7
- level of expressed mRNA in the presence/in the absence of chemical substance (yeast gene YLR081W): 1.0
- level of expressed mRNA in the presence/in the absence of chemical substance (yeast gene YLR089C): 0.8
- The level of expressed mRNA in the presence of chemical substance/The level of expressed mRNA in the absence of chemical substance (yeast gene YLR180W): 0.8
- level of expressed mRNA in the presence/in the absence of chemical substance (yeast gene YLR284C): 1.6
- The level of expressed mRNA in the presence of chemical substance/The level of expressed mRNA in the absence of chemical substance (yeast gene YLR299W): 0.6
- The level of expressed mRNA in the presence of chemical substance/The level of expressed mRNA in the absence of chemical substance (yeast gene YLR300W): 0.8
- level of expressed mRNA in the presence/in the absence of chemical substance (yeast gene YLR304C): 0.6
- The level of expressed mRNA in the presence of chemical substance/The level of expressed mRNA in the absence of chemical substance (yeast gene YLR307W): 1.4
- The level of expressed mRNA in the presence of chemical substance/The level of expressed mRNA in the absence of chemical substance (yeast gene YLR348C): 0.9
- level of expressed mRNA in the presence/in the absence of chemical substance (yeast gene YLR354C): 1.6
- level of expressed mRNA in the presence/in the absence of chemical substance (yeast gene YLR372W): 1.4
- level of expressed mRNA in the presence/in the absence of chemical substance (yeast gene YML022W): 1.3
- The level of expressed mRNA in the presence of chemical substance/The level of expressed mRNA in the absence of chemical substance (yeast gene YML054C): 1.3
- The level of expressed mRNA in the presence of chemical substance/The level of expressed mRNA in the absence of chemical substance (yeast gene YML070W): 1.4
- The level of expressed mRNA in the presence of chemical substance/The level of expressed mRNA in the absence of chemical substance (yeast gene YML100W): 0.9
- The level of expressed mRNA in the presence of chemical substance/The level of expressed mRNA in the absence of chemical substance (yeast gene YMR008C): 1.1
- level of expressed mRNA in the presence/in the absence of chemical substance (yeast gene YMR011W): 0.9
- level of expressed mRNA in the presence/in the absence of chemical substance (yeast gene YMR015C): 1.7
- The level of expressed mRNA in the presence of chemical substance/The level of expressed mRNA in the absence of chemical substance (yeast gene YMR020W): 1.4
- level of expressed mRNA in the presence/in the absence of chemical substance (yeast gene YMR083W): 1.5
- The level of expressed mRNA in the presence of chemical substance/The level of expressed mRNA in the absence of chemical substance (yeast gene YMR105C): 0.9
- The level of expressed mRNA in the presence of chemical substance/The level of expressed mRNA in the absence of chemical substance (yeast gene YMR189W): 0.4
- level of expressed mRNA in the presence/in the absence of chemical substance (yeast gene YMR205C): 1.2
- level of expressed mRNA in the presence/in the absence of chemical substance (yeast gene YMR261C): 0.9
- The level of expressed mRNA in the presence of chemical substance/The level of expressed mRNA in the absence of chemical substance (yeast gene YMR271C): 1.1
- The level of expressed mRNA in the presence of chemical substance/The level of expressed mRNA in the absence of chemical substance (yeast gene YMR296C): 0.4
- level of expressed mRNA in the presence/in the absence of chemical substance (yeast gene YMR323W): 0.7
- The level of expressed mRNA in the presence of chemical substance/The level of expressed mRNA in the absence of chemical substance (yeast gene YNL012W): 1.3

— patent US8192962B2, “Processes for detecting toxic substances” (Daikin Industries, Ltd., priority 2001, dated 2012)
